Source: ChEMBL document CHEMBL4828706, “Mechanistic Insights into the Leishmanicidal and Bactericidal Activities of Batroxicidin, a Cathelicidin-Related Peptide from a South American Viper (Bothrops atrox)” (J Nat Prod, 2021)
In brackets after ≈: the same amount, converted by molar mass. Activity calls are given as the source filed them. No cut-off for these calls is given here. Where a SMILES comes first, the peptide text is derived from it.

How the values were obtained:
Lipid bilayer [1] = assay: Induction of membrane destabilization in mammalian cell membrane mimic POPC:Chol (70:30) large unilamellar vesicle assessed as carboxyfluorescein leakage at MIC for Escherichia coli measured for 60 mins by fluorescence spectroscopy analysis
Pseudomonas aeruginosa [2] = assay: Antibacterial activity against multidrug-resistant Pseudomonas aeruginosa assessed as inhibition of bacterial growth by CLSI protocol based microdilution assay; assay type: functional
Cell membrane [3] = assay: Disruption of membrane integrity in Leishmania amazonensis promastigotes assessed as cell morphology deformation at 61.98 uM by Atomic force microscopy analysis; assay type: subcellular
Leishmania amazonensis [4] = assay: Antileishmanial activity in Leishmania amazonensis amastigotes infected in Balb/c mouse peritoneal macrophages assessed as reduction in infection index measured after 24 hrs by Giemsa staining based assay; assay type: functional, organism-based; settings: Peritoneal macrophage
Staphylococcus aureus [5] = assay: Antibacterial activity against Staphylococcus aureus ATCC 29213 assessed as inhibition of bacterial growth by CLSI protocol based microdilution assay; assay type: functional
Enterococcus faecalis = assay: Antibacterial activity against Enterococcus faecalis ATCC 29212 assessed as inhibition of bacterial growth by CLSI protocol based microdilution assay; assay type: functional
[6] = Cytotoxicity against mouse macrophage J774 cells assessed as cell growth inhibition measured after 24 hrs by Prestoblue dye based fluorescence analysis
[7] = Cytotoxicity against human HaCat cells assessed as cell growth inhibition measured after 48 hrs by MTT assay; assay type: cell-based
Escherichia coli [8] = assay: Antibacterial activity against Escherichia coli ATCC 25922 assessed as inhibition of bacterial growth by CLSI protocol based microdilution assay; assay type: functional
Escherichia coli [9] = assay: Antibacterial activity against multidrug- resistant Escherichia coli assessed as inhibition of bacterial growth by CLSI protocol based microdilution assay; assay type: functional
Lipid bilayer [10] = assay: Binding affinity with Biomimetic membrane dodecylphosphocholine micelles by circular dichroism analysis
Pseudomonas aeruginosa [11] = assay: Antibacterial activity against Pseudomonas aeruginosa ATCC 27853 assessed as inhibition of bacterial growth by CLSI protocol based microdilution assay; assay type: functional
Lipid bilayer [12] = assay: Binding affinity with Biomimetic membrane dodecylphosphocholine micelles by NMR analysis
Staphylococcus aureus [13] = assay: Antibacterial activity against methicillin-resistant Staphylococcus aureus assessed as inhibition of bacterial growth by CLSI protocol based microdilution assay; assay type: functional
Cell membrane [14] = assay: Disruption of membrane integrity in Leishmania amazonensis promastigotes assessed as cell morphology deformation by measuring wrinkled patterns at 61.98 uM by Atomic force microscopy analysis; assay type: subcellular
Leishmania amazonensis [15] = assay: Antileishmanial activity against Leishmania amazonensis (MHOM/BR/73/M2269) promastigotes assessed as inhibition of parasite growth measured after 24 hrs by MTT assay; assay type: functional, organism-based; settings: MHOM/BR/73/M2269, 24 h
Lipid bilayer [16] = assay: Induction of membrane destabilization in bacterial cell membrane mimic POPC:POPG (80:20) large unilamellar vesicle assessed as carboxyfluorescein leakage at MIC for Escherichia coli measured for 60 mins by fluorescence spectroscopy analysis
Cell membrane [17] = assay: Induction of cell membrane permeabilization in Escherichia coli ATCC 25922 assessed as cell morphology distortion by measuring modifications on bacillary structure at 0.12 uM by Atomic force microscopy analysis; assay type: subcellular
Cell membrane [18] = assay: Disruption of membrane integrity in Leishmania amazonensis promastigotes assessed as cell morphology deformation at 59.81 uM by Atomic force microscopy analysis; assay type: subcellular
Cell membrane [19] = assay: Disruption of membrane integrity in Leishmania amazonensis promastigotes at EC50 to 2 x EC50 measured after 24 hrs by SYTOX green staining based fluorescence assay; assay type: subcellular
Cell membrane [20] = assay: Disruption of membrane integrity in Leishmania amazonensis promastigotes assessed as cell morphology deformation by measuring wrinkled patterns at 59.81 uM by Atomic force microscopy analysis; assay type: subcellular
Cell membrane [21] = assay: Induction of cell membrane permeabilization in Escherichia coli ATCC 25922 assessed as cell morphology distortion by measuring modifications on bacillary structure at 0.23 uM by Atomic force microscopy analysis; assay type: subcellular
Cell membrane [22] = assay: Induction of cell membrane permeabilization in Escherichia coli ATCC 25922 assessed as cell morphology distortion by measuring alterations in cell shape at 0.47 uM by Atomic force microscopy analysis; assay type: subcellular
Escherichia coli [23] = assay: Antibacterial activity against Escherichia coli ATCC 1812446 assessed as inhibition of bacterial growth incubated for 18 hrs by CLSI protocol based microdilution assay; assay type: functional
Escherichia coli [24] = assay: Antibacterial activity against Escherichia coli ATCC 2101123 assessed as inhibition of bacterial growth incubated for 18 hrs by CLSI protocol based microdilution assay; assay type: functional
Leishmania amazonensis [25] = assay: Antileishmanial activity in Leishmania amazonensis amastigotes infected in Balb/c mouse peritoneal macrophages assessed as average parasitic charge per macrophage at 0.70 uM measured after 24 hrs by Giemsa staining based assay; assay type: functional; settings: dose 0.7 µM
Cell membrane [26] = assay: Induction of cell membrane permeabilization in Escherichia coli ATCC 25922 assessed as cell morphology distortion by measuring circular depressions along the bacterial surface at 0.47 uM by Atomic force microscopy analysis; assay type: subcellular
Leishmania amazonensis [27] = assay: Antileishmanial activity in Leishmania amazonensis amastigotes infected in Balb/c mouse peritoneal macrophages assessed as average parasitic charge per macrophage at 1 uM measured after 24 hrs by Giemsa staining based assay; assay type: functional
Pseudomonas aeruginosa [28] = assay: Antibacterial activity against Pseudomonas aeruginosa ATCC 27853 assessed as inhibition of bacterial growth incubated for 18 hrs by CLSI protocol based microdilution assay; assay type: functional
Escherichia coli [29] = assay: Antibacterial activity against Escherichia coli ATCC 25922 assessed as inhibition of bacterial growth incubated for 18 hrs by CLSI protocol based microdilution assay; assay type: functional

SMILES	Activity (Lipid bilayer [1])	MIC (Pseudomonas aeruginosa [2])	Activity (Leishmania amazonensis [4])	MIC (Staphylococcus aureus [5])	MIC (Enterococcus faecalis)	CC50 at 24 h [6]	CC50 at 48 h [7]	MIC (Escherichia coli [8])	MIC (Escherichia coli [9])	Activity (Lipid bilayer [10])	MIC (Pseudomonas aeruginosa [11])	Activity (Lipid bilayer [12])	MIC (Staphylococcus aureus [13])	EC50 (Leishmania amazonensis [15])	Activity (Lipid bilayer [16])	MIC (Escherichia coli [23])	MIC (Escherichia coli [24])	other results
CC[C@H](C)[C@H](NC(=O)[C@@H](NC(=O)[C@H](CCCNC(=N)N)NC(=O)[C@@H]1CCCN1C(=O)[C@H](CCCCN)NC(=O)[C@H](CCCNC(=N)N)NC(=O)[C@H](Cc1ccccc1)NC(=O)[C@H](Cc1ccccc1)NC(=O)[C@H](Cc1ccccc1)NC(=O)[C@H](CCCCN)NC(=O)[C@@H](NC(=O)[C@H](CCCNC(=N)N)NC(=O)[C@H](CCCCN)NC(=O)[C@H](CCCCN)NC(=O)[C@@H](NC(=O)[C@H](CO)NC(=O)[C@H](CC(N)=O)NC(=O)[C@H](CCCCN)NC(=O)[C@H](CC(C)C)NC(=O)[C@H](CCCCN)NC(=O)[C@H](CCCCN)NC(=O)[C@H](Cc1ccccc1)NC(=O)[C@H](Cc1ccccc1)NC(=O)[C@H](CCCCN)NC(=O)[C@H](CCCCN)NC(=O)[C@H](Cc1ccccc1)NC(=O)[C@H](CCCNC(=N)N)NC(=O)[C@@H](N)CCCCN)C(C)C)C(C)C)C(C)C)C(=O)NCC(=O)N[C@H](C(=O)N[C@H](C(=O)N[C@@H](Cc1ccccc1)C(=O)N1CCC[C@H]1C(N)=O)[C@@H](C)O)C(C)C (H-KRFKKFFKKLKNSVKKRVKFFFRKPRVIGVTFP-NH2)	30%	0.94 µM (≈ 3.88 µg/mL)	Dose-Dependent Effect	3.87 µM (≈ 16 µg/mL)	7.75 µM (≈ 32 µg/mL)	3.51 µM	34.1 µM	0.48 µM (≈ 1.98 µg/mL)	0.48 µM (≈ 1.98 µg/mL)	Active	0.97 µM (≈ 4.01 µg/mL)	Active	1.94 µM (≈ 8.01 µg/mL)	8.86 µM	35%	–	–	Activity (Cell membrane [3]): Active; Activity (Cell membrane [14]): Active; Activity (Cell membrane [17]): Active
CC[C@H](C)[C@H](NC(=O)[C@@H](NC(=O)[C@H](CCCNC(=N)N)NC(=O)[C@@H]1CCCN1C(=O)[C@H](CCCCN)NC(=O)[C@H](CCCNC(=N)N)NC(=O)[C@H](Cc1ccccc1)NC(=O)[C@H](Cc1ccccc1)NC(=O)[C@H](Cc1ccccc1)NC(=O)[C@H](CCCCN)NC(=O)[C@@H](NC(=O)[C@H](CCCNC(=N)N)NC(=O)[C@H](CCCCN)NC(=O)[C@H](CCCCN)NC(=O)[C@@H](NC(=O)[C@H](CO)NC(=O)[C@H](CC(N)=O)NC(=O)[C@H](CCCCN)NC(=O)[C@H](CC(C)C)NC(=O)[C@H](CCCCN)NC(=O)[C@H](CCCCN)NC(=O)[C@H](Cc1ccccc1)NC(=O)[C@H](Cc1ccccc1)NC(=O)[C@H](CCCCN)NC(=O)[C@H](CCCCN)NC(=O)[C@H](Cc1ccccc1)NC(=O)[C@H](CCCNC(=N)N)NC(=O)[C@@H](N)CCCCN)C(C)C)C(C)C)C(C)C)C(=O)NCC(=O)N[C@H](C(=O)N[C@H](C(=O)N[C@@H](Cc1ccccc1)C(=O)N1CCC[C@H]1C(=O)N[C@@H](Cc1ccccc1)C(N)=O)[C@@H](C)O)C(C)C (H-KRFKKFFKKLKNSVKKRVKFFFRKPRVIGVTFPF-NH2)	60%	4 µM (≈ 17.1 µg/mL)	Dose-Dependent Effect	3.74 µM (≈ 16 µg/mL)	7.48 µM (≈ 32 µg/mL)	2.14 µM	29.4 µM	0.93 µM (≈ 3.98 µg/mL)	0.94 µM (≈ 4.02 µg/mL)	Active	1.87 µM (≈ 8 µg/mL)	Active	1.87 µM (≈ 8 µg/mL)	6.74 µM	60%	–	–	Activity (Cell membrane [18]): Active; Activity (Cell membrane [19]): Active; Activity (Cell membrane [20]): Active; Activity (Cell membrane [21]): Active
CC[C@H](C)[C@H](NC(=O)[C@@H](NC(=O)[C@H](CCCNC(=N)N)NC(=O)[C@@H]1CCCN1C(=O)[C@H](CCCCN)NC(=O)[C@H](CCCNC(=N)N)NC(=O)[C@H](Cc1ccccc1)NC(=O)[C@H](Cc1ccccc1)NC(=O)[C@H](CCCCN)NC(=O)[C@H](CCCCN)NC(=O)[C@@H](NC(=O)[C@H](CCCNC(=N)N)NC(=O)[C@H](CCCCN)NC(=O)[C@H](CCCCN)NC(=O)[C@@H](NC(=O)[C@H](CO)NC(=O)[C@H](CC(N)=O)NC(=O)[C@H](CCCCN)NC(=O)[C@H](CC(C)C)NC(=O)[C@H](CCCCN)NC(=O)[C@H](CCCCN)NC(=O)[C@H](Cc1ccccc1)NC(=O)[C@H](Cc1ccccc1)NC(=O)[C@H](CCCCN)NC(=O)[C@H](CCCCN)NC(=O)[C@H](Cc1ccccc1)NC(=O)[C@H](CCCNC(=N)N)NC(=O)[C@@H](N)CCCCN)C(C)C)C(C)C)C(C)C)C(=O)NCC(=O)N[C@H](C(=O)N[C@H](C(=O)N[C@@H](Cc1ccccc1)C(=O)N1CCC[C@H]1C(=O)N[C@@H](Cc1ccccc1)C(N)=O)[C@@H](C)O)C(C)C (H-KRFKKFFKKLKNSVKKRVKKFFRKPRVIGVTFPF-NH2)	35%	0.94 µM (≈ 4 µg/mL)	Dose-Dependent Effect	7.51 µM (≈ 32 µg/mL)	7.51 µM (≈ 32 µg/mL)	1.6 µM	21.7 µM	0.48 µM (≈ 2.04 µg/mL)	0.94 µM (≈ 4 µg/mL)	Active	0.94 µM (≈ 4 µg/mL)	Active	7.51 µM (≈ 32 µg/mL)	4.9 µM	50%	8 µM (≈ 34.1 µg/mL)	8 µM (≈ 34.1 µg/mL)	Activity (Cell membrane [22]): inactive; Activity (Leishmania amazonensis [25]): 1.96; Activity (Cell membrane [26]): Active
C[C@@H]1[C@H](O)[C@@H](C)/C=C/C=C/C=C/C=C/C=C/C=C/C=C/[C@H](O[C@@H]2O[C@H](C)[C@@H](O)[C@H](N)[C@@H]2O)C[C@@H]2O[C@](O)(C[C@@H](O)C[C@@H](O)[C@H](O)CC[C@@H](O)C[C@@H](O)CC(=O)O[C@H]1C)C[C@H](O)[C@H]2C(=O)O [AMPHOTERICIN B]	–	–	–	–	–	–	–	–	–	–	–	–	–	0.024 µM	–	–	–	Ratio (Leishmania amazonensis [27]): 5.07
C[C@H]1C(=O)O[C@@H]2CCN3CC=C(COC(=O)[C@](C)(O)[C@]1(C)O)[C@H]23 [MONOCROTALINE]	–	–	–	–	–	–	–	–	–	–	–	–	–	–	–	16 µM (≈ 5.21 µg/mL)	4 µM (≈ 1.3 µg/mL)	MIC (Pseudomonas aeruginosa [28]): 1.56 µM (≈ 0.508 µg/mL); MIC (Escherichia coli [29]): 0.78 µM (≈ 0.254 µg/mL)
